Values quoted from earlier work, collected in patent publication US11796546B2, “Methods for quantifying drug concentration in a prodrug composition” (GENZYME CORPORATION, priority 2019, dated 2023).

Experiments:
[1] = system: type 2 diabetes mellitus patients

In the case of “HdSQGTFTSDLSKQK(γE-palmitate)ESKAAQDFIEWLKAGGPSSGAPPPS-NH2 [SAR425899]”, the “glycemic control and weight loss” value [1] is listed as “facilitate glycemic control and weight loss” and the in vivo clearance is listed as “rapid in vivo clearance”.
